Laboratory results as given in patent US7964732B2, “Substituted bicyclocarboxyamide compounds” (Pfizer Inc., priority 2006, dated 2011).

Molecular target: T1, human VR1 (Homo sapiens, UniProt Q8NER1)
T1 construct: host or cells: cells that express human VR1 receptors (cell type not specified)
Assay: Human VR1 antagonist assay (Ca2+ imaging assay using human VR1 highly expressing cells)
Format: cell-based
Conditions: intracellular Ca2+ imaging (fura-2)
From the text: VR1 antagonistic activity can be determined by the Ca^2+ imaging assay using human VR1 highly expressing cells. The cells that highly express human VR1 receptors are obtainable from several different conventional methods. The one standard method is cloning from human Dorsal Root Ganglion (DRG) or kidney according to the methods such as described in the journal article; Nature, 389, pp 816-824, 1997. Alternatively VR1 receptors highly expressing human keratinocytes are also known and published in the journal article (Biochemical and Biophysical Research Communications, 291, pp 124-129, 2002). […] Furthermore, the method to up regulate human VR1 gene, which is usually a silent gene or don't produce detectable level of VR1 receptors, is also available to obtain propriety cells. Such genetic modification method was described in detail; Nat. Biotechnol., 19, pp 440-445, 2001.
The cells that express human VR1 receptors were maintained in culture flask at 37° C. in an environment containing 5% CO2 until use in the assay. The intracellular Ca^2+ imaging assay to determine VR1 antagonistic activities were done by following procedures.
The culture medium was removed from the flask and fura-2/AM fluorescent calcium indicator was added to the flask at a concentration of 5 μM in the medium. The flask was placed in CO2 incubator and incubated for 1 hour. Then the cells expressing the human VR1 receptors were detached from the flask follow by washing with phosphate buffer saline, PBS(−) and re-suspended in assay buffer. The 80 μl of aliquot of cell suspension (3.75×10^5 cells/ml) was added to the assay plate and the cells were spun down by centrifuge (950 rpm, 20° C., 3 minutes).
Compounds of the examples were tested in the Human VR1 antagonist assay described above.
The capsaicin-induced changes in the intracellular calcium concentration were monitored using FDSS 6000 (Hamamatsu Photonics, Japan), a fluorometric imaging system. The cell suspension in Krebs-Ringer HEPES (KRH) buffer (115 mM NaCl, 5.4 mM KCl, 1 mM MgSO4, 1.8 mM CaCl2, 11 mM D-Glucose, 25 mM HEPES, 0.96 mM Na2HPO4, pH 7.3) were pre-incubated with varying concentrations of the test compounds or KRH buffer (buffer control) for 15 minutes at room temperature under the dark condition. Then capsaicin solution, which gives 300 nM in assay mixture, was automatically added to the assay plate by the FDSS 6000.
The Acid-induced changes in the intracellular calcium concentration were monitored using FDSS 6000 (Hamamatsu Photonics, Japan), a fluorometric imaging system. The cell suspension in resting buffer (HBSS supplemented with 10 mM HEPES, pH 7.4) were pre-incubated with varying concentrations of the test compounds or resting buffer (buffer control) for 15 minutes at room temperature under the dark condition. The cells were automatically added the stimulating solution (HBSS supplemented with MES, final assay buffer pH5.8) by the FDSS 6000.
The monitoring of the changes in the fluorescence signals (λex=340 nm/380 nm, λem=510-520 nm) was initiated at 1 minute prior to the addition of capsaicin solution or acidic buffer and continued for 5 minute.

T1 sequence (Q8NER1 whole entry): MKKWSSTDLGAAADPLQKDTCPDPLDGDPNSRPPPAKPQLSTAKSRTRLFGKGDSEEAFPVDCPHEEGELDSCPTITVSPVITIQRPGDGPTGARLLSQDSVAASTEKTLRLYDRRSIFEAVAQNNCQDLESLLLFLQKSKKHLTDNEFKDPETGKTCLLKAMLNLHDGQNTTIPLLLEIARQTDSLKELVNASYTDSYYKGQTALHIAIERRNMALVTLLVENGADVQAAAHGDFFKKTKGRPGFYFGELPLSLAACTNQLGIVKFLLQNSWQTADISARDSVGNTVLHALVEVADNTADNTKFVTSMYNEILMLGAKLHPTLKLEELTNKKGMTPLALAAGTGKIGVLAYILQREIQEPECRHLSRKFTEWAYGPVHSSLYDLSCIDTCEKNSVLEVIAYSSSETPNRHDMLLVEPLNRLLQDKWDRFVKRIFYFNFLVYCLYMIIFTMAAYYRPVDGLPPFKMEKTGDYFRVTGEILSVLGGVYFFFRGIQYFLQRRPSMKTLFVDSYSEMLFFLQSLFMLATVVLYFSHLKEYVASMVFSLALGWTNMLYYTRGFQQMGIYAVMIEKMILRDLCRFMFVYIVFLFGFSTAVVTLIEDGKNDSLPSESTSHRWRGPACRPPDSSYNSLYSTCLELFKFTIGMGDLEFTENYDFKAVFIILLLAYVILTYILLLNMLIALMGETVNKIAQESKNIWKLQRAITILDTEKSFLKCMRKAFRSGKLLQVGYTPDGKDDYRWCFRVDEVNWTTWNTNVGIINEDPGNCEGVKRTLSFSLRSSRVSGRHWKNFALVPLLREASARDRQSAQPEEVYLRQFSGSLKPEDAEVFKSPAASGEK

IC50 [µM]	SMILES
0.145	CCC(NC(=O)c1ccc2nc(C(C)(C)C(F)(F)F)ccc2c1)c1cnn(C)c1C (racemic) [Example 7, N-[1-(1,5-dimethyl-1H-pyrazol-4-yl)propyl]-2-(2,2,2-trifluoro-1,1-dimethylethyl)quinoline-6-carboxamide]
0.066	CC[C@@H](NC(=O)c1ccc2nc(C(C)(C)C(F)(F)F)ccc2c1)c1cnn(C)c1C (single isomer, unassigned) [Example 8]
0.261	Cc1c(CNC(=O)c2ccc3nc(C(C)(C)C(F)(F)F)ccc3c2)cnn1C [Example 2, N-[(1,5-dimethyl-1H-pyrazol-4-yl)methyl]-2-(2,2,2-trifluoro-1,1-dimethylethyl)quinoline-6-carboxamide]
0.0164	Cc1c(C(C)NC(=O)c2ccc3nc(C(C)(C)C(F)(F)F)ccc3c2)cnn1CCO (stereo not drawn) [Example 11, N-(1-(1-(2-hydroxyethyl)-5-methyl-1H-pyrazol-4-yl)ethyl)-2-(2,2,2-trifluoro-1,1-dimethylethyl)quinoline-6-carboxamide]
0.0717	CCn1ncc(CNC(=O)c2ccc3nc(C(C)(C)C(F)(F)F)ccc3c2)c1C [Example 15, N-[(1-ethyl-5-methyl-1H-pyrazol-4-yl)methyl]-2-(2,2,2-trifluoro-1,1-dimethylethyl)quinoline-6-carboxamide]
0.0289	CCn1ncc(C(C)NC(=O)c2ccc3nc(C(C)(C)C(F)(F)F)ccc3c2)c1C (stereo not drawn) [Example 16, N-[1-(1-ethyl-5-methyl-1H-pyrazol-4-yl)ethyl]-2-(2,2,2-trifluoro-1,1-dimethylethyl)quinoline-6-carboxamide]

Further lines, the molecule ahead of its results:

SMILES	IC50 [µM]
Cc1c([C@@H](C)NC(=O)c2ccc3cc(C(C)(O)C(F)(F)F)ccc3c2)cnn1C (mixture of isomers) [Example 31, N-[(1R)-1-(1,5-dimethyl-1H-pyrazol-4-yl)ethyl]-6-(2,2,2-trifluoro-1-hydroxy-1-methylethyl)-2-naphthamide]	0.177
Cc1c([C@@H](C)NC(=O)c2ccc3cc([C@@](C)(O)C(F)(F)F)ccc3c2)cnn1C (single isomer, unassigned) [Example 32]	0.0527
C[C@@H](NC(=O)c1ccc2nc(C(C)(C)C(F)(F)F)ccc2c1)c1cnn(C)c1C#N [Example 3, (R)-N-(1-(5-cyano-1-methyl-1H-pyrazol-4-yl)ethyl)-2-(2,2,2-trifluoro-1,1-dimethylethyl)quinoline-6-carboxamide]	0.322
C[C@@H](NC(=O)c1ccc2nc(C(C)(C)C(F)(F)F)ccc2c1)c1cnn(C)c1CO [Example 4, (R)-N-(1-(5-(hydroxymethyl)-1-methyl-1H-pyrazol-4-yl)ethyl)-2-(2,2,2-trifluoro-1,1-dimethylethyl)quinoline-6-carboxamide]	0.607
Cc1c(C(C)NC(=O)c2ccc3nc(C(C)(C)C(F)(F)F)ccc3c2)cnn1CC(F)(F)F (stereo not drawn) [Example 5, N-(1-(5-methyl-1-(2,2,2-trifluoroethyl)-1H-pyrazol-4-yl)ethyl)-2-(2,2,2-trifluoro-1,1-dimethylethyl)quinoline-6-carboxamide]	0.0441
Cc1[nH]ncc1C(C)NC(=O)c1ccc2nc(C(C)(C)C(F)(F)F)ccc2c1 (stereo not drawn) [Example 9, N-[1-(5-methyl-1H-pyrazol-4-yl)ethyl]-2-(2,2,2-trifluoro-1,1-dimethylethyl)quinoline-6-carboxamide]	0.323
Cc1c(C(C)NC(=O)c2ccc3nc(C(C)(C)C(F)(F)F)ccc3c2)cnn1CC(C)(C)O (stereo not drawn) [Example 12, N-(1-(1-(2-hydroxy-2-methylpropyl)-5-methyl-1H-pyrazol-4-yl)ethyl)-2-(2,2,2-trifluoro-1,1-dimethylethyl)quinoline-6-carboxamide]	0.0799
Cc1c([C@@H](C)NC(=O)c2ccc3nc(C4(C)CC4)ccc3c2)cnn1C [Example 13, N-[(1R)-1-(1,5-dimethyl-1H-pyrazol-4-yl)ethyl]-2-(1-methylcyclopropyl) quinoline-6-carboxamide]	0.313
Cc1c([C@@H](C)NC(=O)c2ccc3nc(C(C)(O)C(F)(F)F)ccc3c2)cnn1C (stereo partly drawn) [Example 14]	0.0637
